Results from patent US20190282566A1, “USE OF FLIBANSERIN IN THE TREATMENT OF OBESITY” (Sprout Pharmaceuticals, Inc., priority 2005, published 2019).

What was measured:
[1] = 13-week dietary admixture study in rats, body weight; type: in vivo
Method: To test the efficacy of Flibanserin in the treatment of obesity groups of the rats per sex per group (gang-housed) received Flibnanserin at dosages of 0 (control), 100, 200, and 600 mg/kg/day via dietary admixture. The test compound was mixed with the food to obtain a 3% premix. This premix was prepared in week −1 and drug week 7 and was used to prepare the substance/food mixtures for all individual groups. The substance/food concentration was calculated using the mean daily food intake from the study week before. The substance/food mixture was made weekly for every dose group and stored under darkness in the animal room. The concentration, homogeneity and stability of the test substance in the food was checked during study week 2 with reanalysis one and four weeks later. One further check of concentration and homogeneity was performed in week 13. The body weight of each animal was determined and recorded once a week including the pretest acclimation period, in the morning on the same day of the week.
The following tables presents the results of the above described experiments as absolute body weights at start of treatment (week −1) as well as in drug week 6 and 13, including percentage change compared to controls. (in parentheses).

[2] = system: 5-HT2-receptor family; conditions: cited from earlier work
[3] = biological target: T1, 5-HT1A receptor (Homo sapiens, UniProt P08908); conditions: cited from earlier work
T1 sequence (P08908 1-422): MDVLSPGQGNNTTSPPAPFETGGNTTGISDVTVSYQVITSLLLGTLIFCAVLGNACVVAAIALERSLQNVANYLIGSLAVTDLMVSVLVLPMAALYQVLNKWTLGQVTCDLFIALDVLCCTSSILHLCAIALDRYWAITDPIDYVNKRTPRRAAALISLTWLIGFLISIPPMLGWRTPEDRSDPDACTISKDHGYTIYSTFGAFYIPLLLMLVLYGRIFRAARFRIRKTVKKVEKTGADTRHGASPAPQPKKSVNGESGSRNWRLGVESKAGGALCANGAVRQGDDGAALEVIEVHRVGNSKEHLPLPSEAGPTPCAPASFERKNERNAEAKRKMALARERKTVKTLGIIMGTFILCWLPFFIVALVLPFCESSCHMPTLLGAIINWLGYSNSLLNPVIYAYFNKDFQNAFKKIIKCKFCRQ

[4] = female rats, 100 mg/kg/day via diet, drug week 6
[5] = female rats, 100 mg/kg/day via diet, drug week 13
[6] = female rats, 100 mg/kg/day via diet, drug week −1 (start of treatment)
[7] = female rats, 200 mg/kg/day via diet, drug week 6
[8] = female rats, 200 mg/kg/day via diet, drug week 13
[9] = female rats, 200 mg/kg/day via diet, drug week −1 (start of treatment)
[10] = female rats, 600 mg/kg/day via diet, drug week 6
[11] = female rats, 600 mg/kg/day via diet, drug week 13
[12] = female rats, 600 mg/kg/day via diet, drug week −1 (start of treatment)
[13] = male rats, 100 mg/kg/day via diet, drug week 6
[14] = male rats, 100 mg/kg/day via diet, drug week 13
[15] = male rats, 100 mg/kg/day via diet, drug week −1 (start of treatment)
[16] = male rats, 200 mg/kg/day via diet, drug week 6
[17] = male rats, 200 mg/kg/day via diet, drug week 13
[18] = male rats, 200 mg/kg/day via diet, drug week −1 (start of treatment)
[19] = male rats, 600 mg/kg/day via diet, drug week 6
[20] = male rats, 600 mg/kg/day via diet, drug week 13
[21] = male rats, 600 mg/kg/day via diet, drug week −1 (start of treatment)

O=c1[nH]c2ccccc2n1CCN1CCN(c2cccc(C(F)(F)F)c2)CC1 [BIMT 17 BS, 1-[2-(4-(3-trifluoromethyl-phenyl)piperazin-1-yl)ethyl]-2,3-dihydro-1H-benzimidazol-2-one]
Mean absolute body weight [1, 4]: 213.6 grams
percent change to controls (body weight) [1, 4]: −6.8%
Mean absolute body weight [1, 5]: 234.5 grams
percent change to controls (body weight) [1, 5]: −10.3%
Mean absolute body weight [1, 6]: 141.3 grams
percent change to controls (body weight) [1, 6]: +0.1%
Mean absolute body weight [1, 7]: 209.7 grams
percent change to controls (body weight) [1, 7]: −8.5%
Mean absolute body weight [1, 8]: 234.9 grams
percent change to controls (body weight) [1, 8]: −10.2%
Mean absolute body weight [1, 9]: 142.2 grams
percent change to controls (body weight) [1, 9]: +0.7%
Mean absolute body weight [1, 10]: 196.0 grams
percent change to controls (body weight) [1, 10]: −14.4%
Mean absolute body weight [1, 11]: 225.8 grams
percent change to controls (body weight) [1, 11]: −13.7%
Mean absolute body weight [1, 12]: 140.7 grams
percent change to controls (body weight) [1, 12]: −0.4%
difference compared to controls at study end (body weight decrease) ([1]; females, 100 mg/kg/day): 10%
difference compared to controls at study end (body weight decrease) ([1]; females, 200 mg/kg/day): 10%
difference compared to controls at study end (body weight decrease) ([1]; females, 600 mg/kg/day): 14%
Mean absolute body weight [1, 13]: 340.9 grams
percent change to controls (body weight) [1, 13]: −7.4%
Mean absolute body weight [1, 14]: 397.4 grams
percent change to controls (body weight) [1, 14]: −9.8%
Mean absolute body weight [1, 15]: 188.1 grams
percent change to controls (body weight) [1, 15]: −1.7%
Mean absolute body weight [1, 16]: 340.4 grams
percent change to controls (body weight) [1, 16]: −7.5%
Mean absolute body weight [1, 17]: 400.9 grams
percent change to controls (body weight) [1, 17]: −9.0%
Mean absolute body weight [1, 18]: 189.3 grams
percent change to controls (body weight) [1, 18]: −1.0%
Mean absolute body weight [1, 19]: 284.8 grams
percent change to controls (body weight) [1, 19]: −22.7%
Mean absolute body weight [1, 20]: 333.2 grams
percent change to controls (body weight) [1, 20]: −24.3%
Mean absolute body weight [1, 21]: 186.8 grams
percent change to controls (body weight) [1, 21]: −2.4%
difference compared to controls at study end (body weight decrease) ([1]; males, 100 mg/kg/day): 10%
difference compared to controls at study end (body weight decrease) ([1]; males, 200 mg/kg/day): 9%
difference compared to controls at study end (body weight decrease) ([1]; males, 600 mg/kg/day): 24%
body weight gain of males and females ([1]; rats, 100, 200 and 600 mg/kg/day via diet, in almost all drug weeks, versus controls): significantly decreased
affinity for the 5-HT2-receptor family [2]: shows affinity
affinity for the 5-HT1A receptor [3]: shows affinity
